Several values for one entry are separate records, joined by “and”; a condition that tells them apart may be missing. Equal entries are not always repeated. Where two headings read alike, the source gives them in different places.
Columns and labels:
[1] = test system: Plasmodium falciparum strain D6; assay: SYBR Green I fluorescence-based MSF assay, in vitro antimalarial activity, strain D6; type: cell-based; conditions: chloroquine sensitive strain D6, 72 hrs incubation
Procedure: (§1) Plasmodium falciparum strains D6 and Dd2 were obtained from the MR4 (ATCC, Manassas, Va., USA). D6 is sensitive to chloroquine but mildly resistant to mefloquine while Dd2 is resistant to multiple quinoline and antifolate antimalarial agents. Tm90.C2B is resistant to atovaquone, chloroquine, mefloquine, and quinine.
(§2) Three different laboratory strains of P. falciparum were cultured in human erythrocytes by standard methods under a low oxygen atmosphere (5% O2, 5% CO2, 90% N2) in an environmental chamber as described in Trager, W., and J. B. Jensen. 1976. Human malaria parasites in continuous culture. Science 193:673-5. The culture medium was RPMI-1640, supplemented with 25 mM HEPES buffer, 25 mg/L gentamicin sulfate, 45 mg/L hypoxanthine, 10 mM glucose, 2 mM glutamine, and 0.5% Albumax II (complete medium). The parasites were maintained in fresh human erythrocytes suspended at a 2% hematocrit in complete medium at 37° C. Stock cultures were sub-passaged every 3 to 4 days by transfer of infected red cells to a flask containing complete medium and uninfected erythrocytes.
(§3) In vitro antimalarial activity of the compounds was assessed by the SYBR Green I fluorescence-based method (the “MSF assay”) described previously by Smilkstein, M., N. Sriwilaijaroen, J. X. Kelly, P. Wilairat, and M. Riscoe. 2004. Simple and inexpensive fluorescence-based technique for high-throughput antimalarial drug screening. Antimicrob Agents Chemother 48:1803-6 with minor modifications (Winter, R. W., J. X. Kelly, M. J. Smilkstein, R. Dodean, G. C. Bagby, R. K. Rathbun, J. I. Levin, D. Hinrichs, and M. K. Riscoe. 2006. Evaluation and lead optimization of anti-malarial acridones. Exp Parasitol 114:47-56). Experiments were set up in triplicate in 96 well plates (Costar, Corning) with two-fold dilutions of each drug across the plate in a total volume of 100 microliters and at a final red blood cell concentration of 2% (v/v). Stock solutions of each drug were prepared by dissolving in ethanol or dimethylsulfoxide (as appropriate) at 10 mM. […] Automated pipeting and dilution was carried out with the aid of a programmable Precision 2000 robotic station (BioTek, Winooski, Vt.). An initial parasitemia of 0.2% was attained by addition of normal uninfected red cells to a stock culture of asynchronous parasite infected red cells (PRBC). The plates were incubated for 72 hrs at 37° C. in an atmosphere of 5% CO2, 5% O2, and 90% N2. After this period the SYBR Green I dye-detergent mixture (100 μl) was added and the plates were incubated at room temperature for an hour in the dark and then placed in a 96-well fluorescence plate reader (Spectramax Gemini-EM, […]) for analysis with excitation and emission wavelength bands centered at 497 and 520 nm, respectively.
(§4) The compounds were screened for antiplasmodial activity in vitro against chloroquine (CQ) sensitive (D6), multidrug resistant (Dd2), and chloroquine/quinine/atovaquone (ATV)-resistant (Tm90.C2B) strains of P. falciparum.

[2] = test system: P. falciparum (D6, Dd2, Tm90.C2B); assay: In vitro activity and pharmaco-resistance pattern against a panel of P. falciparum parasites; type: cell-based, Plasmodium falciparum; conditions: for antiplasmodial activity in vitro (in words): structure-activity comparison with endochin; for reduction of potency relative to ELQ-121: in vitro, relative to the 5,7-difluoro parent ELQ-121; for cross-resistance / sensitivity pattern across strains: atovaquone-resistant Tm90.C2B compared with D6 and Dd2, in words
Procedure: as §1, §2, §3, §4

P. yoelii = type: in vivo
Procedure: The activity of the ester, ELQ-125, against the blood stages was assessed using a modified Thompson procedure (Arba Ager, 1984). Rodent malaria models, vol. 68/1. Springer-Verlag, Berlin. Mice (female, CFI) were infected intravenously with 1-5 million P. yoelii parasitized erythrocytes from a donor animal. Drug administration was initiated once the parasitemia had risen to between 3 to 5% as determined microscopically by examination of Giemsa-stained blood smears. The test compound, ELQ-125, was taken into NeoBee® M-5 (Stephan Company, Northfield, Ill., USA) and used without dilution. The drug was administered by gavage once daily for 3 days. On the 4th day blood films were prepared and the extent of parasitemia was determined microscopically. ED50 and ED90 values (mg/kg/day) were derived from the dose required to reduce the parasite burden by 50% and 90%, respectively, relative to drug-free controls. The procedures involved, together with all matters relating to the care and housing of the animals used in this study, were approved by the Portland VA Medical Center Institutional Animal Care and Use Committee (approval #0807).
Prodrugs containing a water-soluble pro-moiety that could be metabolically released after drug administration were designed and synthesized. […] In each case, ELQ-125, a clear and colorless syrup, was administered orally with NeoBee M-5 (vol.=100 μl).

[3] = test system: Plasmodium falciparum strain Dd2; assay: SYBR Green I fluorescence-based MSF assay, in vitro antimalarial activity, strain Dd2; type: cell-based; conditions: multidrug resistant strain Dd2, 72 hrs incubation
Procedure: as §1
Three different laboratory strains of P. falciparum were cultured in human erythrocytes by standard methods under a low oxygen atmosphere (5% O2, 5% CO2, 90% N2) in an environmental chamber as described in Trager, W., and J. B. Jensen. 1976. Human malaria parasites in continuous culture. Science 193:673-5. […]
In vitro antimalarial activity of the compounds was assessed by the SYBR Green I fluorescence-based method (the “MSF assay”) described previously by Smilkstein, M., N. Sriwilaijaroen, J. X. Kelly, P. Wilairat, and M. Riscoe. […] Simple and inexpensive fluorescence-based technique for high-throughput antimalarial drug screening. […] After this period the SYBR Green I dye-detergent mixture (100 μl) was added and the plates were incubated at room temperature for an hour in the dark and then placed in a 96-well fluorescence plate reader (Spectramax Gemini-EM, […]) for analysis with excitation and emission wavelength bands centered at 497 and 520 nm, respectively. […]

[4] = test system: Plasmodium falciparum strain Tm90.C2B; type: cell-based
Procedure: as §1, §2
In vitro antimalarial activity of the compounds was assessed by the SYBR Green I fluorescence-based method (the “MSF assay”) described previously by Smilkstein, M., N. Sriwilaijaroen, J. X. Kelly, P. Wilairat, and M. Riscoe. 2004. Simple and inexpensive fluorescence-based technique for high-throughput antimalarial drug screening. Antimicrob Agents Chemother 48:1803-6 with minor modifications (Winter, R. W., J. X. Kelly, M. J. Smilkstein, R. Dodean, G. C. Bagby, R. K. Rathbun, J. I. Levin, D. Hinrichs, and M. K. Riscoe. 2006. Evaluation and lead optimization of anti-malarial acridones. Exp Parasitol 114:47-56). […] After this period the SYBR Green I dye-detergent mixture (100 μl) was added and the plates were incubated at room temperature for an hour in the dark and then placed in a 96-well fluorescence plate reader (Spectramax Gemini-EM, […]) for analysis with excitation and emission wavelength bands centered at 497 and 520 nm, respectively. […]

[5] = test system: Toxoplasma gondii strain 2F; assay: Anti-T. gondii assay with beta-galactosidase expressing 2F strain in HFF cells; type: cell-based; conditions: compared with the correlation observed for Plasmodium falciparum
Procedure: Determination of anti-T. gondii IC50 and TD50 values—use of the 2F strain. This method, which employs tachyzoites of Toxoplasma gondii strain 2F that constitutively expresses cytoplasmic Beta-galactosidase, has been described recently by Jones-Brando et al. (Jones-Brando, L., D'angelo, J., Posner, G H, and Yolken, R., 2006, In vitro inhibition of Toxoplasma gondii by four new derivatives of artemisinin, Antimicrobial Agents and Chemotherapy 50: 4206-8). […] Briefly, each drug was dissolved in ethanol or DMSO, as appropriate, at a concentration of 10 mM and diluted with complete Dulbecco's modified Eagle's medium (DMEM) to 1,000 μM. […] After this period, Triton X-100 is added to inactivate the parasite and the color reactions in the wells were read in a microplate reader. For anti-T. gondii IC50 determinations, the plates are read at 570-650 nm. The amount of absorbance (570-650 nm) in wells containing drug, parasites, and CPRG reagent is compared to that in control wells containing T. gondii, HFF cells and CPRG. The amount of absorbance in these wells is directly proportional to the amount of beta-galactosidase activity and thus correlative to the number of viable tachyzoites in each well. Thus, a decrease in the amount of absorbance indicates an inhibition of parasite growth. […]

P. lophurae = P. lophurae in the turkey; cited from earlier work
Haemoproteus = conditions: male gametocytes undergoing exflagellation, finches infected with Haemoproteus; cited from earlier work
malaria infections = conditions: mice to non-human primates (Rhesus monkeys); cited from earlier work
P. gallinaceum = P. gallinaceum in the chick; cited from earlier work
P. cathemerium = conditions: P. cathemerium/canary; cited from earlier work
[6] = chloroquine/quinine/atovaquone-resistant Tm90.C2B clinical isolate, 72 hrs incubation

## CCCCCCCc1c(C)[nH]c2cc(Cl)ccc2c1=O [ELQ-109]
[1]
  IC50: 5.8 nM
[2]
  antiplasmodial activity in vitro (in words): only a modest reduction in in vitro potency

## CCCCCCCc1c(C)nc2cc(F)cc(F)c2c1OC(=O)OCCOCCOCCOCCOC [ELQ-125]
P. yoelii; 25 mg/kg/day oral, 3 days, assessed on the day following the last dose
  parasitemia suppressed relative to controls: > 99%
P. yoelii; 25 mg/kg/day oral, 3 days, until euthanized 10 days later
  parasite status during follow-up: remained parasite-free
P. yoelii; 50 mg/kg/day oral in NeoBee M-5, once daily for 3 days, mice
  clearance of parasites from the bloodstream: completely cleared parasites from the bloodstream
P. yoelii; 100 mg/kg/day oral in NeoBee M-5, once daily for 3 days, mice
  clearance of parasites from the bloodstream: completely cleared parasites from the bloodstream
P. yoelii; oral in 100 μl NeoBee M5, once daily for 3 days, mice
  ED90: 22 mg/kg/day
P. yoelii; prodrug ester compared with ELQ-121
  in vivo efficacy of the prodrug (in words): greatly enhanced in vivo efficacy

## CCCCCCCc1c(C)[nH]c2cc(O)ccc2c1=O [ELQ-117]
[2]
  antiplasmodial activity in vitro (in words): greatly diminishes antiplasmodial activity

## CCCCCCCc1c(C)[nH]c2cc(F)ccc2c1=O [ELQ-120]
[2]
  antiplasmodial activity in vitro (in words): only a modest reduction in in vitro potency

## CCCCCCCc1c(C)[nH]c2cc(F)cc(F)c2c1=O [ELQ-121, 2-Methyl-3-(n-heptyl)-5.7-difluorquinolone]
[1]
  IC50: ~0.05 nM
[3]
  IC50: ~0.05 nM
[4]; times higher than IC50 against D6 and Dd2
  IC50 against Tm90.C2B relative to D6 and Dd2: about 300 times

## CCCCCCCc1c(C)[nH]c2c(F)cc(F)cc2c1=O [6,8-difluoro positional isomer]
[2]
  reduction of potency relative to ELQ-121: ≈ 2,000 fold

## CCCCCCCc1c(O)[nH]c2cc(OC)ccc2c1=O [ELQ-106]
[1]
  IC50: > 2500 nM

## CCCCCCCc1c(C)nc2cc(F)cc(F)c2c1Cl [ELQ-119]
[2]
  reduction of potency relative to ELQ-121: > 1,000 fold

## CCCCCCCc1c(C)[nH]c2cc(Cl)cc(Cl)c2c1=O [ELQ-124]
[2]
  antiplasmodial activity in vitro (in words): weak in vitro activity

## CCCCCCCc1c(C)[nH]c2ccc(Cl)cc2c1=O [ELQ-130]
[1]
  IC50: 22.2 nM
[2]
  cross-resistance / sensitivity pattern across strains: equal sensitivity is observed against the atovaquone-resistant Tm90.C2B clinical isolate

## CCCCCCCc1c(C)n(C)c2cc(F)cc(F)c2c1=O [ELQ-134]
[5]
  growth inhibitory activity against Toxoplasma gondii (in words): enhanced growth inhibitory activity
[2]
  reduction of potency relative to ELQ-121: about 300 fold

## CCCCCCCc1c(C)[nH]c2cc(OC)ccc2c1=O [ELQ-100, endochin]
P. lophurae
  efficacy in treatment and prophylaxis: demonstrated efficacy in treatment and prophylaxis
Haemoproteus
  gametocidal action: exerted gametocidal action
Malaria infections
  cure of malaria infections in mammalian species: failed to cure malaria infections
[1]
  IC50: 3 to 4 nM and 3.8 nM
[2]
  cross-resistance / sensitivity pattern across strains: a modest level of ATV cross-resistance
P. gallinaceum
  efficacy in treatment and prophylaxis: demonstrated efficacy in treatment and prophylaxis
P. cathemerium
  efficacy in bird model: efficacy in treatment and prevention of malaria
[4]; [6]
  IC50: 11.4 nM

## CCCCCCCc1c(C)[nH]c2ccccc2c1=O [ELQ-127]
[2]
  cross-resistance / sensitivity pattern across strains: equally active against all three parasite strains
[2]; relative to endochin
  in vitro activity weakened relative to endochin: roughly 5 fold

## COc1ccc2c(=O)c(CCCCCCCCCCC(F)(F)F)c(C)[nH]c2c1 [ELQ-103]
[1]
  IC50 vs. D6: low nanomolar range
[3]
  IC50 vs. Dd2: low nanomolar range
[4]; [6]
  IC50 vs. Tm90.C2B: low nanomolar range
